Biological target: T1, JAK3: Recombinant human kinase domain (810-1124) (Homo sapiens, UniProt P52333)
T1 construct: Recombinant human kinase domain (810-1124); made in house
Assay: Determination of IC50 of Janus Kinase (JAK) inhibition, radioactive 33P-ATP end-point assay, JAK3
Type: biochemical
Settings: 0.1 nM JAK3, ATP 1.5 uM, peptide 50 uM, 20 minutes, room temperature; read-out: JAK3 Enzyme IC50
Protocol: Determination of IC50 of Janus Kinase (JAK) inhibition:
Enzymes and peptide substrate used are described below:
JAK3: Recombinant human kinase domain (810-1124) made in house by Roche Palo Alto
Substrate: N-terminally biotinylated 14-mer peptide derived from activation loop of JAK1 with sequence of the peptide substrate: Biotin-KAIETDKEYYTVKD
Assay conditions used are described below:
Assay Buffer: JAK Kinase Buffer: 50 mM Hepes [pH 7.2], 10 mM MgCl2, 1 mM DTT, 1 mg/ml BSA. The assay is carried out in this buffer.
Assay Format: The kinase activity of all three JAK kinases is measured using a radioactive, end-point assay and with trace amounts of ^33P-ATP. The assays are carried out in 96-well polypropylene plates.
All concentrations are final in the reaction mixture and all incubations are carried at room temperature. Assay steps are described below:
1) Compounds are serially diluted in 100% DMSO typically at a 10× starting concentration of 1 mM. Final concentration of DMSO in the reaction is 10%.
2) Compounds are preincubated with enzyme (0.1 nM JAK3, 1 nM JAK2, 5 nM JAK1) for 10 minutes.
3) Reactions are initiated by the addition of a cocktail of the two substrates (ATP and peptide premixed in the JAK Kinase Buffer). In the JAK1/JAK2/JAK3 assays, ATP and the peptide are used at concentrations of 1.5 uM and 50 uM, respectively. The duration of the assay for JAK2 and JAK3 is 20 minutes. JAK1 assay is carried out for 45 minutes. With all three enzymes, reactions are terminated by the addition of 0.5M EDTA to a final concentration of 100 mM. 4) 25 ul of terminated reactions are transferred to 150 ul of a 7.5% (v/v) slurry of streptavidin-coated sepharose beads in MgCl2- and CaCl2-free 1× Phosphate Buffered Saline containing 50 mM of EDTA in 96-well, 1.2 um MultiScreen-BV filter plates. 5) After a 30-minute incubation, the beads are washed under vacuum with the following buffers:
a. 3 to 4 washes with 200 ul of 2M NaCl.
b. 3 to 4 washes with 200 ul of 2M NaCl plus 1% (v/v) phosphoric acid.
6) Washed plates are dried in a 60° C. oven for between 1 to 2 hours.
7) 70 ul of Microscint 20 scintillation fluid is added to each well of filter plates and after at least 30 minutes of incubation, radioactive counts are measured in a Perkin Elmer microplate scintillation counter.

T1 sequence (P52333 810-1124): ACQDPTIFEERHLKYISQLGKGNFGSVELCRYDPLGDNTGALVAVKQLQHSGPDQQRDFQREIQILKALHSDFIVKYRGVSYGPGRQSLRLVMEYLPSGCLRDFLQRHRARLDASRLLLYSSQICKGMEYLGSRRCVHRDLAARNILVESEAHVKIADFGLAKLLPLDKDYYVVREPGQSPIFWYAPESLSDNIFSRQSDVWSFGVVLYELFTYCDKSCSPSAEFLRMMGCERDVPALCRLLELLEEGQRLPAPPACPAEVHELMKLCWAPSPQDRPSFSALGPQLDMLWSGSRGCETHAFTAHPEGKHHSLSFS

Row | Compound | IC50
1 | CCC1(C)CCCCCCc2cccc(n2)Nc2n[nH]c3c2CN(C3)C1=O (centres unmarked) [Compound I-1] | 915 nM
2 | CC1CCCCC(C)(C)C(=O)N2Cc3[nH]nc(c3C2)Nc2cccc1n2 (centres unmarked) [Compound I-2] | 795 nM
3 | CC1(C)CCCCCc2cc(ccn2)Nc2n[nH]c3c2CN(C3)C1=O [Compound I-3] | > 10000 nM
4 | CCC1(C)CCCCOc2cccc(n2)Nc2n[nH]c3c2CN(C3)C1=O (centres unmarked) [Compound I-5] | 530 nM
5 | CC1(C)CCCCCc2cccc(n2)Nc2n[nH]c3c2CN(C3)C1=O [Compound I-6] | 502 nM
6 | CC1(C)CCCCc2cccc(n2)Nc2n[nH]c3c2CN(C3)C1=O [Compound I-7] | 811 nM
7 | CC1(C)CCCCOc2cccc(n2)Nc2n[nH]c3c2CN(C3)C1=O [Compound I-8] | 1040 nM
8 | CC1(C)CCCOc2cccc(n2)Nc2n[nH]c3c2CN(C3)C1=O [Compound I-9] | > 3000 nM
9 | O=C1N2Cc3[nH]nc(c3C2)Nc2cccc(n2)CCCCCC12CCCCC2 [Compound I-14] | 4210 nM
10 | CC1(c2ccccc2)CCCCCc2cccc(n2)Nc2n[nH]c3c2CN(C3)C1=O (centres unmarked) [Compound I-16] | > 1000 nM
11 | O=C1N2Cc3[nH]nc(c3C2)Nc2cccc(n2)CCCCCC12CCOCC2 [Compound I-17] | > 1000 nM

Stronger by IC50, values ahead:

Row | IC50 | Compound
12 | 280 nM | CCC1(C)CCCCCc2cccc(n2)Nc2n[nH]c3c2CN(C3)C1=O (centres unmarked) [Compound I-4]
13 | 343 nM | CC1(C)CCCCCOc2cccc(n2)Nc2n[nH]c3c2CN(C3)C1=O [Compound I-10]
14 | 487 nM | CC1CCc2cccc(n2)Nc2n[nH]c3c2CN(C3)C(=O)C(C)(C)CC1 (centres unmarked) [Compound I-11]
15 | 42.6 nM | CC12CCN(CCCCc3cccc(n3)Nc3n[nH]c4c3CN(C4)C1=O)C2 (centres unmarked) [Compound I-12]
16 | 92.8 nM | CC12CCN(CCCc3cccc(n3)Nc3n[nH]c4c3CN(C4)C1=O)C2 (centres unmarked) [Compound I-13]
17 | 444 nM | O=C1N2Cc3[nH]nc(c3C2)Nc2cccc(n2)CCCCCC12CCCC2 [Compound I-15]

Source: patent US8318764B2, “Macrocyclic inhibitors of JAK” (Roche Palo Alto LLC, priority 2009, dated 2012)
